# PMC11366232, “Metabolites profiling of Sapota fruit pulp via a multiplex approach of gas and ultra performance liquid chromatography/mass spectroscopy in relation to its lipase inhibition effect” (PeerJ, 2024)
# Assays:
# [1] = test system: T1, yeast α-glucosidase; experiment: p-nitrophenyl alpha-D-glucopyranoside hydrolysis, absorbance at […] nm; type: biochemical; conditions: unreliable (a separate IC50 is printed for each sample concentration; this row is the 5 mg/mL one); 5 mM pNPG; 100 mM phosphate pH 6.8; 37 °C; 20 min; enzyme source contradictory (yeast or intestinal)
# T1 construct: gene MAL12; commercial native enzyme, Sigma-Aldrich; assay text says yeast, reagent list says intestinal
# [2] = biological target: T2, porcine pancreatic lipase (PL) enzyme type II (Sus scrofa, UniProt P00591); experiment: p-nitrophenyl butyrate hydrolysis, absorbance at […] nm; type: biochemical; conditions: unreliable (a separate IC50 is printed for each sample concentration; this row is the 5 mg/mL one); crude enzyme; pNPB 10 mM stock in acetonitrile; Tris-HCl pH 7.4; 37 °C; 5 min preincubation
# T2 construct: gene PNLIP
# T2 sequence (P00591 1-450): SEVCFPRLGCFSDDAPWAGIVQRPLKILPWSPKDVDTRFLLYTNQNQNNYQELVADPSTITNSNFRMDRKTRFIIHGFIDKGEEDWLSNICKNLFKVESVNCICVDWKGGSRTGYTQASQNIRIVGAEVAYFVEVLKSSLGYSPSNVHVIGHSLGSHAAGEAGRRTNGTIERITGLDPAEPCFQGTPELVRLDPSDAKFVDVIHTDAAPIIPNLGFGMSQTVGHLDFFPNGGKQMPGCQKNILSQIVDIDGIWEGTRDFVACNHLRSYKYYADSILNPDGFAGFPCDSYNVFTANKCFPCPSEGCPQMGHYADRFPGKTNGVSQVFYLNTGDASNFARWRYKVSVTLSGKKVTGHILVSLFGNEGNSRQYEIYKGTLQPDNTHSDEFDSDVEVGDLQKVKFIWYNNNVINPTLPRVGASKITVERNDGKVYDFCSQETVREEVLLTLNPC
Compound,α-Glucosidase inhibitory Assay / Acarbose [1] [mg/mL],Pancreatic Lipase (PL) Inhibition Assay / Orlistat [2] [mg/mL]
C[C@H]1O[C@H](O[C@H]2[C@H](O)[C@@H](O)[C@@H](O[C@H]3[C@H](O)[C@@H](O)C(O)O[C@@H]3CO)O[C@@H]2CO)[C@H](O)[C@@H](O)[C@@H]1N[C@H]1C=C(CO)[C@@H](O)[C@H](O)[C@H]1O (some centres unmarked) [Acarbose],0.16,
CCCCCCCCCCC[C@@H](C[C@@H]1OC(=O)[C@H]1CCCCCC)OC(=O)[C@H](CC(C)C)NC=O [Orlistat],,0.08
